Laboratory results reported in patent US5556744A, “Methods and compositions for diagnosing and treating certain HIV infected patients” (The Trustees of the University of Pennsylvania, priority 1994, dated 1996).

Key:
[1] = system: maternal serum samples (antibodies); assay: ELISA peptide-binding of maternal sera, expanded peptide collection (Example 5); parameters: species or system human; conditions: Example 5
Description: The gp120 and gp41 peptides used in this experiment include peptides 60 [SEQ ID NO:9], 93 [SEQ ID NO:10], 94 [SEQ ID NO:1], 95 [SEQ ID NO:11], 96 [SEQ ID NO:12], 97 [SEQ ID NO:13], 59 [SEQ ID NO:14], 106 [SEQ ID NO:15], 107 [SEQ ID NO:[…]], 1029/33 [SEQ ID NO:2], p18p [SEQ ID NO:17], B138 [SEQ ID NO:3], 466 [SEQ ID NO:4], 497 [SEQ ID NO:18], 117 [SEQ ID NO:19], F560 [SEQ ID NO:20], 35 [SEQ ID NO:5], 120 [SEQ ID NO:21], 121 [SEQ ID NO:22], 123 [SEQ ID NO:23], 36 [SEQ ID NO:24], 40 [SEQ ID NO:25], 41 [SEQ ID NO:26], 649 [SEQ ID NO:6], 53 [SEQ ID NO:7], 55 [SEQ ID NO:27], 128 [SEQ ID NO:28], 129 [SEQ ID NO:29], 132 [SEQ ID NO:30], 57 [SEQ ID NO:8], and 1103/55 [SEQ ID NO:31] from Table 2. These peptides were synthesized based on the same HIV IIIB isolate as were the peptides of Table 2. Alternative designations for these peptides are provided in brackets.
Each of the peptides was at least 85% pure, making them suitable for ELISA analyses. The average length of these peptides was 18 amino acid residues, which allows for a certain degree of local flexibility and conformational folding, thus facilitating detection of antibody species with reactivities to shaped structures.
The maternal serum samples were obtained from the Mothers/Infants Cohort Study described in Example 1. For the ELISA peptide-binding analyses performed essentially as described in Example 3, maternal serum samples were diluted to 1:50 or 1:500 with blocking buffer (1% bovine serum albumin in phosphate-buffered saline containing 0.05% Tween 20). Binding was measured using 10 μg/mL peptide per well and was considered positive if the experimental/control OD450nm ratio was ≥2. Normal (HIV seronegative) human sera were used as controls.

[2] = system: maternal sera (antibodies); assay: ELISA peptide-binding of maternal sera (Example 6); parameters: species or system human
Summary of the method: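 Third-trimester maternal sera, from HIV-1 transmitting and non-transmitting mothers, were tested by ELISA against ~16-residue peptides spanning HIV-1 external and transmembrane glycoproteins. Each serum was run with at least 40 peptides, and values are the percentage of sera binding each peptide.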

58: gp41 peptide, amino acids 794-817, HIV strain IIIB, SEQ ID NO: 173 (KYWWNLLQYWSQELKNSAVSLLNA) [Peptide 58]
Binding / reactivity of maternal sera to peptide (in words) [1]: recognized by the transmission group | Number of Non-Transmitters which bound to peptide ([2]; Non-Transmitters, N = 12): 3 | Percent of Non-Transmitters which bound to peptide ([2]; Non-Transmitters, N = 12): 25% | Number of Transmitters which bound to peptide ([2]; Transmitters, N = 4): 0 | Percent of Transmitters which bound to peptide ([2]; Transmitters, N = 4): 0%
